Experimental data published in US20090054504A1 (KNOPP NEUROSCIENCES, INC., priority 2007, published 2009).
Values joined by “and” are separate entries in the source; they are usually repeats but may differ in a detail not shown here. Equal entries are not always repeated. Where two headings read alike, the source gives them in different places.

How the values were obtained:
in vivo [1] = conditions: both, minipig
Experimental: (§3) The 3- and 6-month repeat dose studies have now been completed at the 7.5, 25 and 50 mg/kg dose levels and the 9-month repeat dose study is ongoing.

minipigs [2] = conditions: past month 7, any dose level
minipigs [3] = conditions: both, minipig, in vivo, 14 days
Experimental: as §3

[4] = molecular target: human cloned dopamine receptors (D3) (Homo sapiens, UniProt P35462); assay: biochemical
Sequence of human cloned dopamine receptors (D3) (P35462 whole entry): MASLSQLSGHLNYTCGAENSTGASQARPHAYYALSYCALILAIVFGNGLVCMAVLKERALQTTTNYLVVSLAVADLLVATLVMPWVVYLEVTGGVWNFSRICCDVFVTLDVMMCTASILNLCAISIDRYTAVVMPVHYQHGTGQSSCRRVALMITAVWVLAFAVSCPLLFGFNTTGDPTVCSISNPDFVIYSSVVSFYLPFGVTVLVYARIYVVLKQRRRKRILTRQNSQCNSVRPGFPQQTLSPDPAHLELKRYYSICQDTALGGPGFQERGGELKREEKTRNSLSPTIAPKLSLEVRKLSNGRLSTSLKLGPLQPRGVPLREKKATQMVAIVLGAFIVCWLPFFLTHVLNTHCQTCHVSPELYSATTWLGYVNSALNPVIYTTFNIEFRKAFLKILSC
Experimental: (§1) These concentrations were tested in cell lines expressing select human cloned dopamine receptors (D2S, D3).

[5] = system: non-naïve male beagle dogs
Experimental: (§4) Doses were administered orally by gavage and clinical observations were taken continuously following dosing: hourly for the first four hours, and then twice daily cage-side observations for the duration of the inter-dose or post-dose interval. Observations were made of clinical signs, mortality, injury and availability of food and water. Animals were fasted for 24 hr prior to dosing. Dogs in each group were exposed to only one drug, or the combination; each dose was administered only once, with a subsequent dose administered after a recovery period of 4 days.

healthy adult volunteers [6] = system: healthy adult volunteers
Experimental: (§5) The first panel was administered a single IR dose of 50 mg, followed 48 hours later by 4½ days of multiple IR dosing (twice daily) at 50 mg Q12 hours. The second panel was administered a single IR dose of 100 mg, followed 48 hours later by 4½ days of multiple IR dosing (twice daily) at 100 mg Q12 hours. Safety observations included vital signs, physical examination, clinical laboratory tests, ECGs, and adverse event reporting. Blood samples were collected pre-dose on Day 1 and serially for 48 hours post-dose to assess the single-dose pharmacokinetics.

minipigs [7] = system: minipigs
rats [8] = system: rats
Experimental: 3.3—Toxicology Studies. […] Following this study, 3- and 6-month repeat dose toxicology studies were completed at doses of 30, 100, and 300 mg/kg.

rats [9] = conditions: 6-month study, any dose level
D5 dopamine receptor = D5 dopamine receptor (Homo sapiens, UniProt P21918); conditions: literature and own data
Sequence of D5 dopamine receptor (P21918 whole entry): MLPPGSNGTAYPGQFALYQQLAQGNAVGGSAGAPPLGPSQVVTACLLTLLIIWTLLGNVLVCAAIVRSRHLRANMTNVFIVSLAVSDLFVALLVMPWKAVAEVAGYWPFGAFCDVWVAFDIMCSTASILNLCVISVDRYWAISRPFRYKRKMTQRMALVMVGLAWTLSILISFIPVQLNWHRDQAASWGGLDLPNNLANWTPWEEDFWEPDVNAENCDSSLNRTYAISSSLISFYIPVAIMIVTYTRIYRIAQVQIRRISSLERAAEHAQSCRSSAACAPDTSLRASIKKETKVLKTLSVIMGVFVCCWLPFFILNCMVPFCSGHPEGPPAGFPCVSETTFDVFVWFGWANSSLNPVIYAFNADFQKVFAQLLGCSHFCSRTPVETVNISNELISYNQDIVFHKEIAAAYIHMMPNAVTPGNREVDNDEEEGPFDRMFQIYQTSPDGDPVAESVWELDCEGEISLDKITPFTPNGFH
Experimental: as §1

D1 dopamine receptor = D1 dopamine receptor (Homo sapiens, UniProt P21728); conditions: literature and own data
Sequence of D1 dopamine receptor (P21728 whole entry): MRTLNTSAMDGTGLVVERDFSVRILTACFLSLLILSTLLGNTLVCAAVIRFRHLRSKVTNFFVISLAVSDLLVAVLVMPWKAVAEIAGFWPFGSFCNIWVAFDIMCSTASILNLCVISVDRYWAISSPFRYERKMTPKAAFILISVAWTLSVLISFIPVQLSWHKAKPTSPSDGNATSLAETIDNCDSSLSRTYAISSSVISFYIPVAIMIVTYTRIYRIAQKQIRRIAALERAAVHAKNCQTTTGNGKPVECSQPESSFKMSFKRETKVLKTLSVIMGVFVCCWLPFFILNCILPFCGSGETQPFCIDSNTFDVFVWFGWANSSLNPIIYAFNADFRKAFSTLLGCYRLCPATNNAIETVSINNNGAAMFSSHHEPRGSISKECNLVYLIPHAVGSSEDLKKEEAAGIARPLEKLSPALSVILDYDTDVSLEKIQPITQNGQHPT
Experimental: as §1

clinical [10] = conditions: human, oral, Fasted; for Cmax: mean ± SD; for Tmax: median
Experimental: as §5

D2 dopamine receptor = assay: D2 binding affinity from journal publications (Schneider & Mierau 1987; Wong & Shrikhande 2003); conditions: range over the literature sources
healthy adult volunteers [11] = assay: clinical; conditions: for CL/F / Ue / Fe / λZ: mean ± SD
Experimental: (§2) Safety observations included vital signs, physical examination, clinical laboratory tests, ECGs, and adverse event reporting. Blood and urine samples were collected pre-dose and for 72 hours post-dose to assess the pharmacokinetics.

clinical [12] = conditions: human, blood, oral
Experimental: as §2

minipigs [13] = conditions: 6-month study, any dose level
rodents = conditions: single oral dose; cited from earlier work
[14] = system: Parkinson's disease patients; conditions: human trials; cited from earlier work
in vivo [15] = conditions: male, dog
Experimental: as §4

[16] = system: restless legs syndrome patients; conditions: human trials; cited from earlier work
human subjects = conditions: cited from earlier work; for MRTD (maximum recommended therapeutic dose): FDA MRTD database
[17] = system: monkeys treated with MPTP; conditions: from MPTP monkey dose
dogs = conditions: single oral dose; cited from earlier work
[18] = system: monkeys treated with MPTP; conditions: motor deficits and Parkinson-like symptoms; cited from earlier work
[19] = CL002, 50 mg Q12H (Day 1), Fasted, mean ± SD
[20] = CL002, 50 mg Q12H (Day 7), Fasted, mean ± SD
[21] = CL002, 100 mg Q12H (Day 1), Fasted, mean ± SD
[22] = CL002, 100 mg Q12H (Day 7), Fasted, mean ± SD
[23] = Day 1, 50 mg IR oral, fasted, mean ± SD
[24] = Day 1, 100 mg IR oral, fasted, mean ± SD
[25] = Day 7, 50 mg after Q12H Days 3-6, fasted, mean ± SD
[26] = Day 7, 100 mg after Q12H Days 3-6, fasted, mean ± SD
[27] = blood, 50 mg, CL002, 50 mg Q12H (Day 1)
[28] = blood, 50 mg, CL002, 50 mg Q12H (Day 7)
[29] = in vivo, 100 mg, CL002, 100 mg Q12H (Day 1)
[30] = in vivo, 100 mg, CL002, 100 mg Q12H (Day 7)
[31] = male, beagle, dog, in vivo, 1 study day
[32] = male, beagle, dog, in vivo, 8 study day

With `CCCN[C@@H]1CCc2nc(N)sc2C1` [RPPX, (6R)-4,5,6,7-tetrahydro-N6-propyl-2,6-benzothiazole-diamine] the NOAEL at 14 days (in vivo [1]) was no less than 75 mg/kg, the “deaths / clinical observations, 9-month study in minipigs” value (minipigs [2]) was “no deaths attributed to test article or significant clinical observations” and the “target organ toxicity by histopathology, 2-week study in minipigs” value (minipigs [3]) was “No target organ toxicity”. The IC50 [4] was 610 nM, the “human equivalence dose of the dog MTD, for a 70 kg human subject” value ([5]; from dog data) was “about 3,000 mg” and the “observable effects in dogs” value ([5]; male, beagle, dog, in vivo, 4 days) was “no observable effects”. For the same molecule, the “increase of AUC(0-12) from Day 1 to Day 7” value (healthy adult volunteers [6]; 50 mg Q12H) was 40%, the “increase of Cmax from Day 1 to Day 7” value (healthy adult volunteers [6]; 50 mg Q12H) was 37% and the “increase of AUC(0-12) from Day 1 to Day 7” value (healthy adult volunteers [6]; 100 mg Q12H) was 38%. For the same molecule, the “increase of Cmax from Day 1 to Day 7” value (healthy adult volunteers [6]; 100 mg Q12H) was 24%, the “AUC (inf)” value (healthy adult volunteers [6]; [19]) was 1,502 ± 280 h*ng/mL and the “AUC(0-t)” value (healthy adult volunteers [6]; [19]) was 1,463 ± 280 h*ng/mL. The “AUC(0−12)” value (healthy adult volunteers [6]; [19]) was 1,035 ± 121 h*ng/mL, the CL/F (healthy adult volunteers [6]; [19]) was 571 ± 107 mL/h and the “AUC(0−12)” value (healthy adult volunteers [6]; [20]) was 1,449 ± 221 h*ng/mL. The CL/F (healthy adult volunteers [6]; [20]) was 585 ± 81.6 mL/h, the “AUC(0-t)” value (healthy adult volunteers [6]; [21]) was 2,545 ± 497 h*ng/mL and the “AUC(0−12)” value (healthy adult volunteers [6]; [21]) was 1,776 ± 260 h*ng/mL. The CL/F (healthy adult volunteers [6]; [21]) was 665 ± 107 mL/h, the “AUC(0−12)” value (healthy adult volunteers [6]; [22]) was 2,465 ± 299 h*ng/mL and the CL/F (healthy adult volunteers [6]; [22]) was 684 ± 76.1 mL/h. For the same molecule, the CL/F (healthy adult volunteers [6]; [23]) was 571 ± 107 (6) mL/min, the λz (healthy adult volunteers [6]; [23]) was 0.1132 ± 0.0230 (6) h^−1 and the CL/F (healthy adult volunteers [6]; [24]) was 665 ± 107 (6) mL/min. The λz (healthy adult volunteers [6]; [24]) was 0.1073 ± 0.0161 (6) h^−1, the CL/F (healthy adult volunteers [6]; [25]) was 585 ± 81.6 (6) mL/min and the λz (healthy adult volunteers [6]; [25]) was 0.1025 ± 0.0186 (6) h^−1. The CL/F (healthy adult volunteers [6]; [26]) was 684 ± 76.1 (6) mL/min, the λz (healthy adult volunteers [6]; [26]) was 0.0894 ± 0.0117 (6) h^−1 and the “mortality in repeat dose studies in minipigs” value (minipigs [7]; 75 mg/kg level, by month 2) was “mortalities”. The “target organ toxicity by histopathology after 3 months, minipigs” value (minipigs [7]; both, minipig, in vivo, 3 months) was “No target organ toxicity”, the “target organ toxicity by histopathology, 3-month study in rats” value (rats [8]; both, rat, in vivo, 300 mg/kg, 3 months) was “some target organ toxicity” and the “target organ toxicity by histopathology, 2-week study in rats” value (rats [8]; both, rat, in vivo, 14 days) was “No target organ toxicity”. The “mortality, 2-week study in rats” value (rats [8]; high dose of 500 mg/kg) was “caused mortality”, the “mortality between the 13-week and 26-week sacrifices, rats” value (rats [9]) was “no mortalities at any dose level” and the “interaction with D5 dopamine receptors” value (D5 dopamine receptor) was “no significant interaction”. For the same molecule, the “interaction with D1 dopamine receptors” value (D1 dopamine receptor) was “no significant interaction”, the Cmax (clinical [10]; [27]) was 139 ± 15.3 ng/mL and the Cmax (clinical [10]; [28]) was 191 ± 20.9 ng/mL. It also gave a Tmax (clinical [10]; [27]) of 1.83 h, a Tmax (clinical [10]; [28]) of 1.75 h and a Cmax (clinical [10]; [29]) of 248 ± 30.4 ng/mL. It also gave a Cmax (clinical [10]; [30]) of 306 ± 55 ng/mL, a Tmax (clinical [10]; [29]) of 1.92 h and a Tmax (clinical [10]; [30]) of 2 h. The “binding affinity of RPPX at the D2 receptor, times lower than PPX, literature” value (D2 dopamine receptor) was 10-20 times and 9-21 times, the CL/F (healthy adult volunteers [11]; CL001, 50 mg SD, Fasted) was 706 ± 182 mL/h and the Ue (healthy adult volunteers [11]; CL001, 50 mg SD, Fasted) was 35.3 ± 5.19 ^ mg. For the same molecule, the CL/F (healthy adult volunteers [11]; CL001, 150 mg SD, Fasted) was 692 ± 183 mL/h, the Ue (healthy adult volunteers [11]; CL001, 150 mg SD, Fasted) was 60.5 ± 7.04 ^ mg and the CL/F (healthy adult volunteers [11]; CL001, 150 mg SD, second 150 mg line, Food printed Fasted) was 774 ± 165 mL/h. For the same molecule, the CL/F (healthy adult volunteers [11]; CL001, 300 mg SD, Fasted) was 659 ± 260 mL/h, the Ue (healthy adult volunteers [11]; CL001, 300 mg SD, Fasted) was 198 ± 28.0 ^ mg and the “Urinary excretion of unchanged drug, share of drug elimination” value (healthy adult volunteers [11]; across dose levels) was “approximately 70%”. The “subjects reporting at least one non-serious adverse event” value (healthy adult volunteers [11]; all 24 subjects (RPPX or placebo, blinded)) was 46%, the “subjects with mild dizziness (most frequent AE)” value (healthy adult volunteers [11]; all subjects (RPPX or placebo, blinded)) was 21% and the CL/F (healthy adult volunteers [11]; single oral 50 mg, fasted) was 706 ± 182 (6) mL/min. For the same molecule, the Fe (healthy adult volunteers [11]; single oral 50 mg, fasted) was 70.7 ± 10.4 (6) % Dose, the Ue (healthy adult volunteers [11]; single oral 50 mg, fasted) was 35.3 ± 5.19 (6) mg and the λZ (healthy adult volunteers [11]; single oral 50 mg, fasted) was 0.1064 ± 0.0171 (6) h^−1. The CL/F (healthy adult volunteers [11]; single oral 150 mg, fasted) was 692 ± 183 (5) mL/min, the Fe (healthy adult volunteers [11]; single oral 150 mg, fasted) was 40.3 ± 4.69 (6) % Dose and the Ue (healthy adult volunteers [11]; single oral 150 mg, fasted) was 60.5 ± 7.04 (6) mg. For the same molecule, the λZ (healthy adult volunteers [11]; single oral 150 mg, fasted) was 0.1001 ± 0.0087 (5) h^−1, the CL/F (healthy adult volunteers [11]; single oral 150 mg, fed) was 774 ± 165 (6) mL/min and the λZ (healthy adult volunteers [11]; single oral 150 mg, fed) was 0.1152 ± 0.0256 (6) h^−1. For the same molecule, the CL/F (healthy adult volunteers [11]; single oral 300 mg, fasted) was 659 ± 260 (6) mL/min, the Fe (healthy adult volunteers [11]; single oral 300 mg, fasted) was 65.8 ± 9.33 (6) % Dose and the Ue (healthy adult volunteers [11]; single oral 300 mg, fasted) was 198 ± 28.0 (6) mg. The λZ (healthy adult volunteers [11]; single oral 300 mg, fasted) was 0.1151 ± 0.0309 (6) h^−1, the Cmax (clinical [12]; 50 mg) was 125 ± 22 ng/mL and the Tmax (clinical [12]; 50 mg) was 2.04 h. The Cmax (clinical [12]; 150 mg) was 360 ± 60.4 ng/mL, the Tmax (clinical [12]; 150 mg) was 2.04 h and the Cmax (clinical [12]; 300 mg) was 781 ± 158 ng/mL. For the same molecule, the Tmax (clinical [12]; 300 mg) was 1.96 h and the “mortality / clinical observations between the 13-week and 26-week sacrifices, minipigs” value (minipigs [13]) was “no mortalities attributed to test article or significant clinical observations”.
In the case of `CCCN[C@H]1CCc2nc(N)sc2C1` [PPX, (6S)-4,5,6,7-tetrahydro-N6-propyl-2,6-benzothiazole-diamine], the “immediate release doses at which deaths occurred (and above)” value (rodents) is given as 70 to 105 mg/kg, the “lowest effective oral immediate release dose versus placebo, Parkinson's disease” value [14] is given as 1.1 mg/day and the NOAEL at 4 days (in vivo [15]) is given as 0.7 µg/kg. For the same molecule, the MTD at 4 days (in vivo [15]; po) was 7.5 µg/kg, the NOAEL at 4 days (in vivo [15]; po) was 1.25 µg/kg and the IC50 [4] was 0.94 nM. The “human dose equivalent to the dog NOAEL, for a 70 kg individual” value ([5]; IR dose, from dog data) was 0.05 mg, the “human equivalence dose of the dog MTD, for a 70 kg human subject” value ([5]; from dog data) was 0.30 mg and the “Behavior/Activity: Activity decreased” value ([5]; male, beagle, dog, in vivo) was 3/4. The “Excretion: Feces soft” value ([5]; male, beagle, dog, in vivo) was 0/4, the “Excretion: Feces watery” value ([5]; male, beagle, dog, in vivo) was 0/4 and the “External Appearance: Lacrimation” value ([5]; male, beagle, dog, in vivo) was 0/4. For the same molecule, the “Eye/Ocular: Pupils dilated” value ([5]; male, beagle, dog, in vivo) was 0/4, the “Pelage/Skin: Skin warm to touch” value ([5]; male, beagle, dog, in vivo) was 0/4 and the “Behavior/Activity: Convulsions - clonic” value [5, 31] was 0/4. The “Behavior/Activity: Salivation” value [5, 31] was 0/4, the “Behavior/Activity: Tremors” value [5, 31] was 1/4 and the “Excretion: Emesis” value [5, 31] was 3/4. The “Excretion: Feces hard” value [5, 31] was 1/4, the “Excretion: Feces mucoid” value [5, 31] was 0/4 and the “Behavior/Activity: Activity decreased” value [5, 32] was 0/4. The “Behavior/Activity: Tremors” value [5, 32] was 0/4, the “Excretion: Emesis” value [5, 32] was 0/4 and the “Excretion: Feces hard” value [5, 32] was 0/4. For the same molecule, the “lowest effective dose versus placebo, restless legs syndrome” value [16] was 0.25 mg/day, the “MRTD (maximum recommended therapeutic dose)” value (human subjects; for a 70 lb. person) was 7.0 mg/day and the “MRTD (maximum recommended therapeutic dose)” value (human subjects) was 0.11 mg/kg/day. For the same molecule, the “immediate release dose shown to cause somnolence” value (human subjects; human subjects) was 1.5 mg, the “starting daily dose not tolerated” value (human subjects; naïve patient) was “greater than 0.20 mg” and the “equivalent human immediate release dose” value [17] was 0.017 mg/kg. The “equivalent human immediate release dose for a 70 kg individual” value [17] was 1.2 mg, the “dose at which vomiting occurred (and above)” value (dogs) was no less than 0.7 µg/kg and the “interaction with D5 dopamine receptors” value (D5 dopamine receptor) was “no significant interaction”. The “interaction with D1 dopamine receptors” value (D1 dopamine receptor) was “no significant interaction” and the “lowest effective oral immediate release dose” value [18] was 0.053 mg/kg.
